The text below walks through data of ChEMBL document CHEMBL3414435, “Computer aided drug discovery of highly ligand efficient, low molecular weight imidazopyridine analogs as FLT3 inhibitors” (Eur J Med Chem, 2015).

The structures appear in SMILES notation. pIC50: −log10 of the molar value. Where only a bound is given, the exact number is not on record here.

In experiment [1] the target is Receptor-type tyrosine-protein kinase FLT3 (Homo sapiens) (UniProt P36888). Particulars: at 20 µM.
Experiment [2] concerns the target T1, Receptor-type tyrosine-protein kinase FLT3 (Homo sapiens, UniProt P36888).
T1 sequence (P36888 whole entry): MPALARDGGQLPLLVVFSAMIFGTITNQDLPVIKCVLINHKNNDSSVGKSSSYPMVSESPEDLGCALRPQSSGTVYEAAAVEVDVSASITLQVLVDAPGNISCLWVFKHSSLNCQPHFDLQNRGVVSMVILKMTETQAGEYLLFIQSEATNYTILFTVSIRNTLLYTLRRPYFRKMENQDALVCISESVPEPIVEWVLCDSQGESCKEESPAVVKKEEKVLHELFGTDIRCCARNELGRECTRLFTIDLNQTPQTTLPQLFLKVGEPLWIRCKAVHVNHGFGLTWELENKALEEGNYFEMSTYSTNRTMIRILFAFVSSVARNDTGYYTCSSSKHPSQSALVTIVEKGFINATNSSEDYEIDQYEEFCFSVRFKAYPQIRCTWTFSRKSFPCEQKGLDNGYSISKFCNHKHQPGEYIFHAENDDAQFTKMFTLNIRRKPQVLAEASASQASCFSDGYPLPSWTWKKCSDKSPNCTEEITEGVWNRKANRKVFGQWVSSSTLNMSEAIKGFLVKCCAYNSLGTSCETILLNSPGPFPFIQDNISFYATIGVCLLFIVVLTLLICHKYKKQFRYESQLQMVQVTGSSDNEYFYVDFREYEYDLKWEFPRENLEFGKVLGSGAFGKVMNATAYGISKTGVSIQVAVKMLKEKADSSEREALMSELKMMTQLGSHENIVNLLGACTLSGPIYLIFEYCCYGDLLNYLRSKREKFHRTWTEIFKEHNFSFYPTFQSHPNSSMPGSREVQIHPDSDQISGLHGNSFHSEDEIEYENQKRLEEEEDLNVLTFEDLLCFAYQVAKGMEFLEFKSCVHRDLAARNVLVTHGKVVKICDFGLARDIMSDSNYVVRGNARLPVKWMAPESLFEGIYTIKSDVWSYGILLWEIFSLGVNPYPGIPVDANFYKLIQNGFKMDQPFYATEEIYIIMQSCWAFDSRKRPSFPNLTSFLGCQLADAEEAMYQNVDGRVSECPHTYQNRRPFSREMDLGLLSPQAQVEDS

Experiment [3] has as its system Receptor-type tyrosine-protein kinase FLT3 (Homo sapiens), P36888 [UNDEFINED MUTATION]. Nature of the experiment: Inhibition of FLT3 ITD mutant (unknown origin) expressed in mouse BAF3 cells assessed as cell growth inhibition after 48 hrs by CellTiter-Glo assay. Format: cell-based. (Cellular ATP, detected with luciferase, serves as a proxy for viable cell number.)

Experiment [4] has the same test system. Nature of the experiment: Inhibition of FLT3 ITD mutant in human MV4-11 cells assessed as cell growth inhibition after 48 hrs by CellTiter-Glo assay. It counts as cell-based.
For experiment [5] the test system is unchanged. In words: Inhibition of FLT3 ITD mutant in human MOLM14 cells assessed as cell growth inhibition after 48 hrs by CellTiter-Glo assay. It counts as cell-based. The note with it: MOLM-14.
For experiment [6] the test system is unchanged. In words: Inhibition of FLT3 ITD F691L mutant (unknown origin) expressed in mouse BAF3 cells assessed as cell growth inhibition after 48 hrs by CellTiter-Glo assay. It counts as cell-based.
Experiment [7] shares this test system. In words: Inhibition of FLT3 ITD D835V mutant (unknown origin) expressed in mouse BAF3 cells assessed as cell growth inhibition after 48 hrs by CellTiter-Glo assay. Format: cell-based.

Compound `COc1ccc(-c2ccn3c(-c4ccc(F)cc4)cnc3c2)cc1` yielded an inhibition in experiment [1] of 98.6%. Further, the pIC50 in experiment [2] is 7.11.

On to `N#CCc1ccc(-c2cnc3ccccn23)cc1`, for which the inhibition in experiment [1] is 20%.

Consider `COc1ccc(-c2ccn3c(-c4ccc(CC#N)cc4)cnc3c2)cc1`, for which the inhibition in experiment [1] was found to be 91%. Besides, in experiment [2], the pIC50 is 6.37.

As to `N#Cc1cc(-c2cnc3cc(-c4ccco4)ccn23)ccc1F`, the inhibition in experiment [1] worked out at 98.7%. In experiment [2], the negative logarithm of the IC50 (pIC50) is 6.33.

In turn, `c1coc(-c2ccn3ccnc3c2)c1` yielded an inhibition in experiment [1] of 67.1%.

In experiment [1], `c1ccn2ccnc2c1` gave an inhibition of 14.6%.

On to `COc1ccc(-c2ccn3ccnc3c2)cc1`, for which the inhibition in experiment [1] amounted to 33.9%.

In experiment [1], `c1ccc(-c2ccn3ccnc3c2)cc1` yielded an inhibition of 0%.

In experiment [1], `Cc1ccc(-c2cnc3cc(-c4ccccc4)ccn23)cc1` yielded an inhibition of 94.1%. Also, the negative-log IC50 (pIC50) in experiment [2] is 6.52.

For `N#Cc1cc(-c2cnc3ccccn23)ccc1F`, the inhibition in experiment [1] worked out at 61.3%.

`c1csc(-c2ccn3ccnc3c2)c1` returned an inhibition in experiment [1] of 79.8%.

`Fc1ccc(-c2cnc3ccccn23)cc1` returned an inhibition in experiment [1] of 94.8%. The compound further had a pIC50 in experiment [2] of 6.32.

Turning to `N#Cc1cc(-c2cnc3cc(-c4cccs4)ccn23)ccc1F`, the inhibition in experiment [1] came out at 29.7%.

Take `Fc1ccc(-c2cnc3cc(-c4ccccc4)ccn23)cc1`: in experiment [1], the inhibition stood at 98.8%. Also, the GI50 in experiment [3] was determined as 333 nM; in experiment [4] it was 706 nM; in experiment [5] it was 513 nM. Further, in experiment [2], the negative logarithm of the IC50 (pIC50) is 7.80.

As to `COc1ccc(-c2ccn3c(-c4ccc(F)c(C#N)c4)cnc3c2)cc1`, in experiment [1], the inhibition was 81.4%.

`N#Cc1cc(-c2cnc3cc(-c4ccccc4)ccn23)ccc1F` gave an inhibition in experiment [1] of 94.1%. In experiment [2], this compound showed a negative logarithm of the IC50 (pIC50) of 6.64.

As to `Cc1ccc(-c2cnc3cc(-c4cccs4)ccn23)cc1`, the inhibition in experiment [1] amounted to 89.7%.

In experiment [1], `Clc1ccn2ccnc2c1` had an inhibition of 23.8%.

As to `N#CCc1ccc(-c2cnc3cc(-c4cccs4)ccn23)cc1`, the inhibition in experiment [1] is 98%. Moreover, the pIC50 in experiment [2] is 7.29.

The compound `Fc1ccc(-c2cnc3cc(-c4ccco4)ccn23)cc1` came in with an inhibition in experiment [1] of 99.3%. Further, the 50% growth inhibitory concentration (GI50) in experiment [6] is over 1000 nM; in experiment [3], 484 nM; in experiment [4], 830 nM; in experiment [5] it was 712 nM; in experiment [7], over 1000 nM. The negative-log IC50 (pIC50) in experiment [2] is 7.39.

As to `COc1ccc(-c2ccn3c(-c4ccc(C)cc4)cnc3c2)cc1`, the inhibition in experiment [1] came out at 91.4%. Moreover, the pIC50 in experiment [2] was 6.36.

In experiment [1], `N#CCc1ccc(-c2cnc3cc(-c4ccco4)ccn23)cc1` displayed an inhibition of 97.8%. In addition, the negative logarithm of the IC50 (pIC50) in experiment [2] is 6.72.

Turning to `Cc1ccc(-c2cnc3ccccn23)cc1`, the inhibition in experiment [1] was found to be 77%.

Turning to `Cc1ccc(-c2cnc3cc(-c4ccco4)ccn23)cc1`, the inhibition in experiment [1] came out at 95.5%. In experiment [2], this compound showed a negative logarithm of the IC50 (pIC50) of 6.80.

`N#CCc1ccc(-c2cnc3cc(-c4ccccc4)ccn23)cc1` gave an inhibition in experiment [1] of 96.4%. The compound further had a pIC50 in experiment [2] of 6.26.

The inhibition is how much of the control response was suppressed. In general, pIC50 refers to the IC50 on a negative log10 scale, so that one unit is a factor of ten. High values mean a small IC50, low ones a large IC50. Usually GI50 stands for the concentration giving 50% growth inhibition.
